The results in this text go back to US8618111B2, “5-alkynyl-pyrimidines” (Boehringer Ingelheim International GmbH, priority 2010, dated 2013).

Molecules are shown by their SMILES.

Assay [1] concerns the target mTOR (Homo sapiens (Human), UniProt P42345). Description: mTOR kinase activity assay (phosphorylation status of mTOR substrate 4E-BP1; TR-FRET). It is filed as biochemical. Conditions: GFP-4E-BP1 substrate, 8 μM ATP. Here is the method: mTOR Kinase Activity Assay
(Phosphorylation Status of mTOR Substrate 4E-BP1; TR-FRET)
The mTOR kinase TR-FRET assay utilizes a physiologically relevant protein substrate for mTOR (4E-BP1, labeled with an acceptor fluorophore (Green Fluorescent Protein) and paired with a corresponding Tb-labeled phospho-specific antibody.
The assay itself is divided into two phases: the reaction phase and the detection phase. In the reaction phase, all components required for the kinase reaction are added to the well, including the labeled protein substrate. The reaction is allowed to incubate for 60 minutes. After the reaction, EDTA is added to stop the kinase reaction, and terbium-labeled antibody is added to bind phosphorylated product. Because the terbium chelate is stable at the EDTA concentrations used to stop a kinase assay, the antibody and EDTA can be pre-mixed prior to addition to minimize pipetting steps. Binding of the terbium labeled antibody to the fluorophore-labeled phosphorylated product brings the terbium and GFP into proximity, resulting in an increase in TR-FRET. In the presence of an inhibitor, formation of phosphorylated product is reduced, and the TR-FRET value is decreased.
• GFP-4E-BP1 substrate; Invitrogen order no. PV4759 • Lanthascreen Tb-anti-p4E-BP1 (pThr46) Antibody Kit; Invitrogen order no. PV4758 • FRAP1 (mTOR) kinase; Invitrogen order no.
400 nM GFP-4E-BP1, 8 μM ATP, ˜150 ng/mL mTOR, 50 mM HEPES pH 7.5, 0.01% Polysorbate 20, 1 mM EGTA, 10 mM MnCl2, and variable amounts of test compounds.
Note: Thaw and keep mTOR, the substrate, ATP, and the antibody on ice prior to making working dilutions. Working dilutions of these components can be kept at room temperature for short periods of time the day of use. • 1. Add 2 ml of 5× Assay Buffer to 8 ml water to prepare 10 ml of 1× Assay Buffer, wherein the concentration of 1× Assay Buffer is 50 mM HEPES pH 7.5, 0.01% Polysorbate 20, 1 mM EGTA, and 10 mM MnCl2. • 2. Prepare Antibody/EDTA Solution by first adding 2.75 μl of Tb-anti p4E-BP1 Antibody to 2397 μl of LanthaScreen™ TR-FRET Dilution Buffer. Then, add 100 μl of 0.5 M EDTA. • 3. […] Then, add 1.6 μl of mTOR (0.45 mg/mL). • 4. Prepare ATP Solution by adding 3.2 μl of 10 mM ATP to 1997 μl of 1× Assay Buffer. Serial Dilution of Inhibitors (16 Point Curve)
Inhibitors are serially diluted in DMSO, then diluted to a 4× working concentration with 1× Assay Buffer. • 1. Dispense 40 μl of DMSO to two adjacent columns of a 96 well plate per compound (e.g. columns 1 and 2). • 2. Add 10 μl of inhibitor stock (10 mM) to the first well of the first column (A1) and mix. • 3. Remove 10 μl from A1 and transfer to the adjacent well in the next column (B1) and mix. • 4. Remove 10 μl from B1 and transfer to the next well in the first column (B2) and mix. • 5. […] Remove 4 μl of diluted compounds and add to 96 μl of 1× Assay Buffer in a 96-well plate making 4× compound dilutions. Kinase Reaction • 1. Add 2.5 μl of 4X compound dilutions to a 384-well plate. • 2. […] Preincubate for […] at RT (shaker). • 5. Add 5 μl of ATP Solution to all wells to start reactions. • 6. Shake the assay plate on a plate shaker for 30 seconds. • 7. Incubate the assay plate for one hour at room temperature (20-25° C.). Stop Step and Fluorescence Detection • 1. Add 10 μl of Antibody/EDTA Solution to each well in columns 1-9. • 2. Shake the assay plate on a plate shaker for 30 seconds. • 3. Incubate the assay plate for one hour at room temperature (20-25° C.). • 4. Measure the GFP (FRET) and terbium (reference) emission signals on a fluorescence plate reader (e.g. Perkin Elmer Envision). Data Analysis • 1. Calculate the emission ratio for each sample by dividing the GFP (FRET) signal by the terbium (reference) signal. • 2.

For assay [2], the target named is PI3Kalpha (Homo sapiens (Human), UniProt P42336). Description: Inhibition of PI3Kalpha-induced PIP-2 phosphorylation (filter-binding assay). Conditions: 33P-ATP. Format: biochemical. The method, then: Inhibition of PI3Kalpha-Induced PIP-2 Phosphorylation
Method Type: Filter-Binding-Assay
Aliquoted in desired amounts and stored at −80° C. Final assay concentration 25 ng/well.

Assay [3] relates to PC3 (human prostate carcinoma cell line) cells. Kind of assay: PC3 proliferation test. The settings on record: PC-3, 72 h, 3 days incubation, DNA dye fluorescence. Format: cell-based.
Procedure: The test is based on measurement of cellular DNA content via fluorescent dye binding. Because cellular DNA content is highly regulated, it is closely proportional to cell number. The extent of proliferation is determined by comparing cell counts for samples treated with drugs with untreated controls.
PC3 (human prostate carcinoma cell line) cells are sown in microtitre plates and incubated overnight in culture medium at 37° C. and 5% CO2. The test substances are diluted stepwise and added to the cells such that the total volume is 200 μL/well. Cells to which diluent, but not substance, is added serve as controls.

mTOR, sequence (P42345 1360-2549): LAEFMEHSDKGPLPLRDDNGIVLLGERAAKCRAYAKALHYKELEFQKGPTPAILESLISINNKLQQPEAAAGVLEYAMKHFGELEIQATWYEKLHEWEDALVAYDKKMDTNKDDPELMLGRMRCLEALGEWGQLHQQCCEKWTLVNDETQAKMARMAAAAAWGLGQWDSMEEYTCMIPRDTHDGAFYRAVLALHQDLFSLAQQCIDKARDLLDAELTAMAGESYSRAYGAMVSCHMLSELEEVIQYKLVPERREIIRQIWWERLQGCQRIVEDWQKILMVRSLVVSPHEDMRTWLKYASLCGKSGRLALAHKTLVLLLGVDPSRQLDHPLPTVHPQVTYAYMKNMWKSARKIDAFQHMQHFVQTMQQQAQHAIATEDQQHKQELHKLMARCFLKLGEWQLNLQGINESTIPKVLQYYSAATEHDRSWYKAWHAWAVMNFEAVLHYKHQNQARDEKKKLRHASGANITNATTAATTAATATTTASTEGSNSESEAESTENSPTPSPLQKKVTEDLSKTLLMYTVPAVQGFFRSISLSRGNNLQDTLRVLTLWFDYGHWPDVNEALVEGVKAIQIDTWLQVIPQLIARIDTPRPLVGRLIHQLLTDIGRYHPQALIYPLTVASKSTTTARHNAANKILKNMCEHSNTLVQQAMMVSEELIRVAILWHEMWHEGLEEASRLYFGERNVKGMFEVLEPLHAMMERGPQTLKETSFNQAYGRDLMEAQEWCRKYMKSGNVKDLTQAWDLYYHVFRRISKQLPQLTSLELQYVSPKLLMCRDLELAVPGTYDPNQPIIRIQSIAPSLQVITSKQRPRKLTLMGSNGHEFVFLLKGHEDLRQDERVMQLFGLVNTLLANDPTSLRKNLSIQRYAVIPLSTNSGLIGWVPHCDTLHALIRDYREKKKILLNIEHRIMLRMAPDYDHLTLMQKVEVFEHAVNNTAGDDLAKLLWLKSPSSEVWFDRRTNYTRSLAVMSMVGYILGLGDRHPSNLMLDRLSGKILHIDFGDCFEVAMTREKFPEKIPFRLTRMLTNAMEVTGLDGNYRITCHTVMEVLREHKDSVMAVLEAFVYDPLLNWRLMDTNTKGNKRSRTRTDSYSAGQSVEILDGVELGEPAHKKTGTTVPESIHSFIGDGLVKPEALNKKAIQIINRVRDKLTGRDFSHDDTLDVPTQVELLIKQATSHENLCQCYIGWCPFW
PI3Kalpha, sequence (P42336 whole entry, species assumed): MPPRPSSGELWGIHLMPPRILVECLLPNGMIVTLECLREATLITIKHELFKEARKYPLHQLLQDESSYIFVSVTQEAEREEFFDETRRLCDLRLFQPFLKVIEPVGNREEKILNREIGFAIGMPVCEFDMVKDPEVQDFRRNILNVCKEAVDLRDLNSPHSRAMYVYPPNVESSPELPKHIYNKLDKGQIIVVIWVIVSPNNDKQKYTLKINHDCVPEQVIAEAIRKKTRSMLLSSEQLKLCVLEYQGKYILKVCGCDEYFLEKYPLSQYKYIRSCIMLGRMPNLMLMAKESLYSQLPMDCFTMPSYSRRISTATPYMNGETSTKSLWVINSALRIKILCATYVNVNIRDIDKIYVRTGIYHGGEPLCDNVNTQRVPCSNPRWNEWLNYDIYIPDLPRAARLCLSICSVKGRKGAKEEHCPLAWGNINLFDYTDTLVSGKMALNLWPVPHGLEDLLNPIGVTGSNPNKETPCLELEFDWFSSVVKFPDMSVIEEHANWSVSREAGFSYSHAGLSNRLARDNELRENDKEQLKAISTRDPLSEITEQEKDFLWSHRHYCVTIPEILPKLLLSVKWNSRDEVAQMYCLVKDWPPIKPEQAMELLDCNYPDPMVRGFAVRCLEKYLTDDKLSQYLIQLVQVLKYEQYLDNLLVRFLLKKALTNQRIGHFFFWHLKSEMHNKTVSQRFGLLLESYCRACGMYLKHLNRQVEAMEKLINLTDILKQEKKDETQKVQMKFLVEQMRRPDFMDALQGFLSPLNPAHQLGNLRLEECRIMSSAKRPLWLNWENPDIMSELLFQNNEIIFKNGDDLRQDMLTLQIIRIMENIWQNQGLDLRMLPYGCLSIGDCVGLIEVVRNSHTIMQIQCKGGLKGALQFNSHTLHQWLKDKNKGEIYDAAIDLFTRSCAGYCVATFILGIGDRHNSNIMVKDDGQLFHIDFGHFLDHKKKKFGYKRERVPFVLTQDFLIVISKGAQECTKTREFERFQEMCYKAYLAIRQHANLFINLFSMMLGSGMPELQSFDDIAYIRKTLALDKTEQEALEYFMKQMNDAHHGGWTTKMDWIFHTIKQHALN
PI3Kalpha, sequence (P27986 whole entry partner, species assumed): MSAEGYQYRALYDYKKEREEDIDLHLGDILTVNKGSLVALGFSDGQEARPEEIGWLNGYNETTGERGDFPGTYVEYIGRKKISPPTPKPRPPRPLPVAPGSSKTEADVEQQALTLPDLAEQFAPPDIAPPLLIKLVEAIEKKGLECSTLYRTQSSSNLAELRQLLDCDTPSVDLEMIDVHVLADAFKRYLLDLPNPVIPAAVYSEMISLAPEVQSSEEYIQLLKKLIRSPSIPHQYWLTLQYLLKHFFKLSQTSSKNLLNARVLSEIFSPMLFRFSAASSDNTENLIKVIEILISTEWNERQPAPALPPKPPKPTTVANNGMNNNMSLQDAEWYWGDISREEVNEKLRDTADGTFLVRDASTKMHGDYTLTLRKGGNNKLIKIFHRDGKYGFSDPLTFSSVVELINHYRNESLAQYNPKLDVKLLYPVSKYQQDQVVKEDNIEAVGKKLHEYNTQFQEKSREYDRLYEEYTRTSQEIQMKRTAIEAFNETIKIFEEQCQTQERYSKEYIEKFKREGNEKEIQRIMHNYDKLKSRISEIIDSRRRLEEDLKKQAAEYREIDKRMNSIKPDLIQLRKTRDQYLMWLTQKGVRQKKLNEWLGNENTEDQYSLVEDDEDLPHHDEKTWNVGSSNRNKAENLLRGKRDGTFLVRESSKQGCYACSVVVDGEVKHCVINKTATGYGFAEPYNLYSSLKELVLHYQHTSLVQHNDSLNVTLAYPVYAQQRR

What is called IC50 is the concentration that gives 50% inhibition. Higher therefore signals weaker potency. The EC50 is the concentration that produces a half-maximal response. For `CCc1ncnc(N2CCC(NC(C)=O)CC2)c1C#Cc1ccc(N)nc1` [Example B-21], 19 nM corresponded to half-maximal inhibition in assay [1] (IC50). Besides, the “IC50 PI3Ka” value in assay [2] worked out at 83 nM. Besides, the EC50 in assay [3] came out at 162 nM.
The corresponding values for `Cc1ncnc(N2CCC(O)(C(F)(F)F)CC2)c1C#Cc1ccc(N)nc1` [Example B-32] are 3 nM, 24 nM and 15 nM.
The corresponding values for `Cc1ncnc(N2CCCOCC2)c1C#Cc1ccc(N)nc1` [Example B-6] are 72 nM, 246 nM and 441 nM.
The corresponding values for `Cc1ncnc(N2CCC(O)C(C)C2)c1C#Cc1ccc(N)nc1` (stereo not drawn) [Example B-67] are 43 nM, 90 nM and 174 nM.
For the compound `Cc1ncnc(N2CCNC(=O)CC2)c1C#Cc1ccc(N)nc1` [Example B-10], the IC50 in assay [1] was determined as 41 nM. In assay [2], the “IC50 PI3Ka” value came to 93 nM. In assay [3], this compound showed an EC50 of 437 nM.
On to `CCc1ncnc(N2CCC(CCO)CC2)c1C#Cc1ccc(C)nc1` [Example B-29], for which 67 nM corresponded to half-maximal inhibition in assay [1] (IC50). The “IC50 PI3Ka” value in assay [2] is recorded as 88 nM. In assay [3], this compound showed an EC50 of 234 nM.
Compound `CCc1ncnc(N2CCC(O)(C(C)C)CC2)c1C#Cc1ccc(C)nc1` [Example B-35] showed an IC50 in assay [1] of 23 nM. Moreover, in assay [2], the “IC50 PI3Ka” value was found to be 172 nM. The same compound returned an EC50 in assay [3] of 168 nM.
In assay [1], `CCc1ncnc(N2CCC(CC(C)(C)O)CC2)c1C#Cc1ccc(N)nc1` [Example B-14] registered an IC50 of 9 nM. For the same compound, the “IC50 PI3Ka” value in assay [2] is 26 nM. The compound also yielded an EC50 in assay [3] of 29 nM.
In turn, `CCc1ncnc(N2CCN(C(=O)c3ccccc3)CC2)c1C#Cc1ccc(N)nc1` [Example G-5] showed an IC50 in assay [1] of 157 nM. Moreover, the “IC50 PI3Ka” value in assay [2] is 110 nM. In assay [3], this compound came in with a concentration giving a half-maximal response (EC50) of 225 nM.
On the same counts, the results for `Cc1ncnc(N2CCC(O)(c3ccccc3)CC2)c1C#Cc1ccc(N)nc1` [Example B-27] are 23 nM, 22 nM and 56 nM.
On the same counts, the results for `CCc1ncnc(N2CCn3c(C)cnc3C2)c1C#Cc1ccc(N)nc1` [Example B-78] are 31 nM, 72 nM and 101 nM.
On the same counts, the results for `CCc1ncnc(N2CCCC2)c1C#Cc1ccc(N)nc1` [Example B-58] are 42 nM, 131 nM and 492 nM.
In assay [1], `Cc1ncnc(N2CCN(CC(C)(C)O)CC2)c1C#Cc1ccc(N)nc1` [Example B-79] yielded an IC50 of 18 nM. Further, the “IC50 PI3Ka” value in assay [2] was found to be 53 nM. The same compound returned an EC50 in assay [3] of 238 nM.
On the same counts, the results for `CCc1ncnc(N2CCN(S(C)(=O)=O)CC2)c1C#Cc1ccc(N)nc1` [Example B-43] are 16 nM, 88 nM and 139 nM.
The corresponding values for `CCc1ncnc(N2CCC(OC)CC2)c1C#Cc1ccc(NC)nc1` [Example B-86] are 9 nM, 94 nM and 115 nM.
Take `COC1CCN(c2ncnc(C)c2C#Cc2ccc(N)nc2)CC1` [Example B-38]: the IC50 in assay [1] is 18 nM. Moreover, in assay [2], the “IC50 PI3Ka” value was 37 nM. In assay [3], this compound displayed an EC50 of 122 nM.
The corresponding values for `CCc1ncnc(N2CCC(OC)CC2)c1C#Cc1ccc(C)nc1` [Example B-68] are 122 nM, 183 nM and 589 nM.
On the same counts, the results for `CCc1ncnc(N2CCC3(CC2)CC(=O)NC(=O)C3)c1C#Cc1ccc(N)nc1` [Example B-82] are 5 nM, 38 nM and 77 nM.
The corresponding values for `CCc1ncnc(N2CCC3(CC2)OCCO3)c1C#Cc1ccc(N)nc1` [Example B-22] are 4 nM, 57 nM and 32 nM.
`CCc1ncnc(N2CCC(O)(C3CCCCC3)CC2)c1C#Cc1ccc(N)nc1` [Example B-12] had an IC50 in assay [1] of 16 nM. For the same compound, in assay [2], the “IC50 PI3Ka” value is 189 nM. The same compound yielded an EC50 in assay [3] of 94 nM.
Turning to `CCc1ncnc(N2CCC(C)(O)CC2)c1C#Cc1ccc(C)nc1` [Example B-73], the IC50 in assay [1] came out at 30 nM. Also, the “IC50 PI3Ka” value in assay [2] came out at 84 nM. This compound gave an EC50 in assay [3] of 160 nM.
On the same counts, the results for `CCc1ncnc(N2CCC(CCO)CC2)c1C#Cc1ccc(N)nc1` [Example B-18] are 5 nM, 35 nM and 34 nM.
On the same counts, the results for `CCc1ncnc(N2CCN(C(=O)OC)CC2)c1C#Cc1ccc(N)nc1` [Example G-6] are 101 nM, 52 nM and 106 nM.
With `CCc1ncnc(N2CCC(O)CC2)c1C#Cc1ccc(N)nc1` [Example B-48], the IC50 in assay [1] amounted to 14 nM. The “IC50 PI3Ka” value in assay [2] is given as 99 nM. The same compound yielded an EC50 in assay [3] of 141 nM.
With `Cc1ncnc(N2CCOC(C)(C)C2)c1C#Cc1ccc(N)nc1` [Example B-1], half-maximal inhibition in assay [1] (IC50) was put at 105 nM. Moreover, the “IC50 PI3Ka” value in assay [2] is listed as 46 nM. The compound further returned an EC50 in assay [3] of 112 nM.
On the same counts, the results for `Cc1ncnc(N2CCC3(CC2)OCCO3)c1C#Cc1ccc(N)nc1` [Example B-26] are 10 nM, 60 nM and 27 nM.
On the same counts, the results for `CCc1ncnc(N2CCN(CC(C)(C)O)CC2)c1C#Cc1ccc(N)nc1` [Example B-81] are 7 nM, 143 nM and 71 nM.
The corresponding values for `CCc1ncnc(N2CCC(OCCOC)CC2)c1C#Cc1ccc(N)nc1` [Example B-37] are 36 nM, 89 nM and 148 nM.
Turning to `CCc1ncnc(N2CCN(CCOC)CC2)c1C#Cc1ccc(N)nc1` [Example B-55], in assay [1], the IC50 stood at 26 nM. The “IC50 PI3Ka” value in assay [2] was 718 nM. In addition, a half-maximal effect in assay [3] (EC50) was put at 191 nM.
On the same counts, the results for `CCc1ncnc(N2CCC(O)(Cc3ccccc3)CC2)c1C#Cc1ccc(N)nc1` [Example B-17] are 74 nM, 115 nM and 129 nM.
The corresponding values for `Cc1ncnc(N2CCN(C(=O)c3ccno3)CC2)c1C#Cc1ccc(N)nc1` [Example G-9] are 55 nM, 39 nM and 310 nM.
On the same counts, the results for `CCc1ncnc(N2CCC(O)(C(F)(F)F)CC2)c1C#Cc1ccc(N)nc1` [Example B-19] are 1 nM, 53 nM and 3 nM.
For `CCc1ncnc(N2CCN(C(=O)c3ccccn3)CC2)c1C#Cc1ccc(N)nc1` [Example G-2], in assay [1], the midpoint of inhibition, the IC50, lay at 90 nM. Besides, the “IC50 PI3Ka” value in assay [2] is on record as 47 nM. Also, it took 138 nM to reach a half-maximal effect in assay [3] (EC50).
The corresponding values for `Cc1ncnc(N2C[C@@H](C)O[C@@H](C)C2)c1C#Cc1ccc(N)nc1` [Example B-9] are 11 nM, 34 nM and 184 nM.
